According to article PMC2375285, “Inhibition of all-TRANS-retinoic acid metabolism by R116010 induces antitumour activity” (British Journal of Cancer, 2002):

Experiments:
[1] = tested on: RA metabolism in T47D cells; experiment: Reverse-phase HPLC analysis of radiolabelled RA metabolites in T47D cells; type: cell-based, human; details: 1 μM R116010; T47D cells pretreated with 1 μM RA
Protocol: The T47D cell suspension was prepared as described above and 450 μl was incubated with 0.1 μM [11, 12-^3H(N)]RA for 90 min. After centrifugation for 10 min at 780 g, the supernatant was analyzed for the presence of RA metabolites. Reverse-phase HPLC analysis was carried out as described previously ([Van heusden et al, 1998]).

17,20-lyase (CYP17) = target: T1, 17,20-lyase (CYP17) (Rattus norvegicus, UniProt P11715); experiment: 17,20-lyase in rat testicular S10 fraction; type: biochemical
T1 construct: 17,20-lyase (CYP17) in rat testicular S10 fractions; from tissue; host or cells: rat testis, S10 fraction
T1 sequence (P11715 1-507): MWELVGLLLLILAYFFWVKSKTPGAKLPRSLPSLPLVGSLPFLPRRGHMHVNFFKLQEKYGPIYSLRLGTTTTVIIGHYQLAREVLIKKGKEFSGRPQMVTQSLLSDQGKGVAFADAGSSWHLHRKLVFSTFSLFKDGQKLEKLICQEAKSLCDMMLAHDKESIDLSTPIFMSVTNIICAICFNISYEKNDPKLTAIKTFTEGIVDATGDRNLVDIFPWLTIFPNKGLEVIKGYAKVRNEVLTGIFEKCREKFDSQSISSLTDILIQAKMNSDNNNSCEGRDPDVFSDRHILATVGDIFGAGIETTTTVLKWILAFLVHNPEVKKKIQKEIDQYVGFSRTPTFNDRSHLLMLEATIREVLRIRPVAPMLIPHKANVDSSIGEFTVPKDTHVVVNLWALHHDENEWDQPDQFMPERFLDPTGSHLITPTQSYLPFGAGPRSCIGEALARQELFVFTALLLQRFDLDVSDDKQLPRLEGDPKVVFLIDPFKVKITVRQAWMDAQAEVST
Protocol: Metabolism of RA by CYP26A1 was measured in microsomes of T47D human breast cancer cells that were pretreated for 16 h with 1 μM RA to induce RA metabolism. Microsomes were prepared exactly as described by [Han and Choi (1996)], and RA metabolism was measured as described by [Van Wauwe et al (1994)]. The conversion of androstenedione to estrone by aromatase (CYP19) in human placental microsomes, the conversion of 17-hydroxy-20-dihydroprogesterone to testosterone by 17,20-lyase (CYP17) in rat testicular S10 fractions, and the 2α-, 7α-, 6β-, and 16β-hydroxylation of testosterone (CYP2C11, CYP2A1, CYP3A, CYP2B1/2) in rat liver microsomes were carried out as described ([Vanden Bossche et al, 1990]).

CYP2C11 = target: T2, CYP2C11 (Rattus norvegicus, UniProt P08683); experiment: Testosterone 2α-hydroxylase in rat liver microsomes; type: biochemical
T2 construct: hydroxylation of testosterone (CYP2C11, CYP2A1, CYP3A, CYP2B1/2) in rat liver microsomes; from tissue; host or cells: rat liver, microsomes
T2 sequence (P08683 1-500): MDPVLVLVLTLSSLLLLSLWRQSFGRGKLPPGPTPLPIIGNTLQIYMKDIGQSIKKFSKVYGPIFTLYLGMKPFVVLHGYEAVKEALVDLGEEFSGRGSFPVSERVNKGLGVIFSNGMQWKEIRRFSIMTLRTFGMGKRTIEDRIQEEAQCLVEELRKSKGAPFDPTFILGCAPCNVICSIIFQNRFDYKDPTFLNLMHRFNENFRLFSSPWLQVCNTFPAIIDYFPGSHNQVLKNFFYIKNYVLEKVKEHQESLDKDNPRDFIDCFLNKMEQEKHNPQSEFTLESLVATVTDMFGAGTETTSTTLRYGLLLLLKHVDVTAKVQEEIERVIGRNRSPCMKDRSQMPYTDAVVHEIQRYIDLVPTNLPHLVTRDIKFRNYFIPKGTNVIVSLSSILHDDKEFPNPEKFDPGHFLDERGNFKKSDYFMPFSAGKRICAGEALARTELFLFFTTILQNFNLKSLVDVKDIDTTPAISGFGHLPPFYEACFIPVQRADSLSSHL
Protocol: (§1) The conversion of androstenedione to estrone by aromatase (CYP19) in human placental microsomes, the conversion of 17-hydroxy-20-dihydroprogesterone to testosterone by 17,20-lyase (CYP17) in rat testicular S10 fractions, and the 2α-, 7α-, 6β-, and 16β-hydroxylation of testosterone (CYP2C11, CYP2A1, CYP3A, CYP2B1/2) in rat liver microsomes were carried out as described ([Vanden Bossche et al, 1990]).

CYP2A1 = target: T3, CYP2A1 (Rattus norvegicus, UniProt P11711); experiment: Testosterone 7α-hydroxylase in rat liver microsomes; type: biochemical
T3 construct: hydroxylation of testosterone (CYP2C11, CYP2A1, CYP3A, CYP2B1/2) in rat liver microsomes; from tissue; host or cells: rat liver, microsomes
T3 sequence (P11711 1-492): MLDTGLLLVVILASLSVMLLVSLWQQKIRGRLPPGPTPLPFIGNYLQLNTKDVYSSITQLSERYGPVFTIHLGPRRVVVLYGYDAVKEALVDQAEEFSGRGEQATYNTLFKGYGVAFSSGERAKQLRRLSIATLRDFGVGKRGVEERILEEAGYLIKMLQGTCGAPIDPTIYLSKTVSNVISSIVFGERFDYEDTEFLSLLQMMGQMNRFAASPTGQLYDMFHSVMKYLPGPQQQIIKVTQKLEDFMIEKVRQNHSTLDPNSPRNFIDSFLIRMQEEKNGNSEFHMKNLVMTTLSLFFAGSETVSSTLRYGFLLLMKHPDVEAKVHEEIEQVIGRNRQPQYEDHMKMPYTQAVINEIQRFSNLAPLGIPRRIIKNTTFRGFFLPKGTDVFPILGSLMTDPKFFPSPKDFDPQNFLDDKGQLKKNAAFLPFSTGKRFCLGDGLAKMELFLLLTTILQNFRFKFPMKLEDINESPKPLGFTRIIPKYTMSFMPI
Protocol: as §1

CYP2B1/2 = experiment: Testosterone 16β-hydroxylase in rat liver microsomes; type: biochemical; details: probe testosterone (16β-hydroxylation)
Protocol: as §1

T47D cells = experiment: T47D cell proliferation (MTT assay, 7 days); type: cell-based, human; details: for enhancement of the antiproliferative activity of RA: T47D cells
Protocol: T47D cells were seeded in Falcon® 96-well cell culture plates (Life Technologies, Merelbeke, Belgium) at 2500 cells per well in a total volume of 150 μl. Cells were allowed to adhere to plastic for 24 h. Drugs and/or medium were added to a final volume of 200 μl (day 0). Cells were grown under these conditions for 7 days, with renewal of medium and drugs on days 2 and 5. On day 7, medium was renewed and 25 μl MTT-solution was added, and cells were further incubated for 2 h in a cell incubator. The medium was aspirated and 25 μl Sorensen glycine buffer (0.1 M glycine, 0.1 M NaCl; pH 10.5) was added together with 100 μl DMSO to solubilize the blue MTT-formazan product. […] Data are presented as mean±s.d. of three or four independent experiments. Within an experiment, the result of each experimental condition is the mean of six replicate wells. The IC50-values were calculated by non-linear regression analysis using SigmaPlot 4.01 software.

[2] = Blood hormone levels in rats treated with R116010; type: in vivo; details: 10 mg kg^−1 R116010
[3] = tested on: androgen-independent rat prostatic Dunning R3327/PIF-1 carcinoma cells; parameters: method as in Van Ginckel et al, 1999; details: in vivo; ref Van Ginckel et al, 1999; cited from earlier work
Lewis lung (3LL) tumours = tested on: Lewis lung (3LL) tumours; parameters: method as in Smets et al, manuscript in preparation; details: in vivo; ref Smets et al, manuscript in preparation; cited from earlier work
TA3-Ha mammary tumours = experiment: TA3-Ha mammary carcinoma model
Protocol: Cells (1.5×10^6) were injected intraperitoneally in syngeneic A/J mice. […] Each group consisted of 10 animals for experiments with R116010 and of six animals for experiments with RA. All treatments were performed by oral gavage. […] The control groups were given the vehicle 20% 4-OH-β-cyclodextrine in sterile saline. Mice were daily examined for adverse drug effects. At the end of the experiments, subcutaneous tumours were excised 24 h after the last treatment and weighed to validate the antitumoural effects of the treatment.
Data are represented as box plots showing median group value, 25/75th percentile, 10/90th percentile and outliers. Groups were statistically compared to the vehicle-treated groups using the Mann–Whitney U-test. Significance was defined at the level of P<0.05.

## C[C@@H]([C@H](c1ccc(Nc2nc3ccccc3s2)cc1)n1ccnc1)N(C)C [R116010, [S-(R*,R*)]-N-[4-[2-(dimethylamino)-1-(1H-imidazole-1-yl)propyl]-phenyl]-2-benzothiazolamine]
[1]
  inhibition of RA metabolism (HPLC): completely inhibited
17,20-lyase (CYP17)
  IC50: 0.25 µM
CYP2C11; Rat liver microsomes
  IC50: > 10 µM
CYP2C11; probe testosterone (2α-hydroxylation), 10 μM R116010, rat liver microsomes, read-out: percentage of inhibition, Testosterone 2α-hydroxylase (CYP2C11)
  inhibition at 10 μM: 28%
CYP2A1; Rat liver microsomes
  IC50: > 10 µM
CYP2A1; probe testosterone (7α-hydroxylation), 10 μM R116010, rat liver microsomes, read-out: percentage of inhibition, Testosterone 7α-hydroxylase (CYP2A1)
  inhibition at 10 μM: 12%
CYP2B1/2; 10 μM R116010, rat liver microsomes, read-out: percentage of inhibition, Testosterone 16β-hydroxylase (CYP2B1/2)
  inhibition at 10 μM: 21%
CYP2B1/2; Rat liver microsomes
  IC50: > 10 µM
T47D cells; 0.01 μM R116010
  enhancement of the antiproliferative activity of RA: 1.25 fold
T47D cells; 0.1 μM R116010
  enhancement of the antiproliferative activity of RA: 2.6 fold
T47D cells; 1 μM R116010
  enhancement of the antiproliferative activity of RA: three-fold
T47D cells; compound alone, 7 days, MTT
  effect on T47D cell proliferation by itself: no effect
[2]
  change in blood hormone levels: no change
[3]
  growth of orthotopically implanted Dunning R3327/PIF-1 carcinoma cells: inhibit the growth
Lewis lung (3LL) tumours
  growth of subcutaneous mouse Lewis lung (3LL) tumours: inhibit the growth
TA3-Ha mammary tumours; R116010 5 mg kg^−1, mice
  body weight decrease: ~15%
TA3-Ha mammary tumours; at toxic dose: RA 5, R116010 5, liarozole fumarate 20 mg kg^−1
  toxicity findings: hair loss and bone fractures
TA3-Ha mammary tumours; maximum tolerated dose versus lowest active dose, TA3-Ha model
  therapeutic window: 30 fold
TA3-Ha mammary tumours; mice, oral, twice daily, toxicity related to hypervitaminosis A
  dose at which toxicity was observed: 5 mg/kg
TA3-Ha mammary tumours; oral, twice daily
  fold more potent than liarozole-fumarate in TA3-Ha model: approximately 60 fold
TA3-Ha mammary tumours; oral, twice daily, day 1 until day 21, tumour weight
  lowest active dose inhibiting TA3-Ha tumour growth: 0.16 mg/kg
